In patent US20220226484A1, “THERAPEUTIC PEPTIDES” (COHBAR, INC., priority 2019, published 2022):

Columns and labels:
[1] = Cell viability, PrestoBlue Assay; format: cell-based, human; settings: human; read-out: Cell viability, % of the background corrected DMSO control value
Experimental: The effect of the peptides on cell viability can be assessed in cultured cells using suitable assay of viability such as the PrestoBlue® assay (Thermo Fisher Scientific, Waltham, Mass.). Peptides were initially prepared as 10 mM stock in DMSO and tested at a final concentration of 10 μM (0.1% DMSO). […] PrestoBlue Assay Reagent was purchased from Thermo Fisher Scientific. A172 human brain glioblastoma cell line was purchased from American Type Culture Collection (Manassas, Va.). A172 cells were grown in DMEM supplemented with 10% FBS with 100 IU/ml penicillin and 100 μg/ml streptomycin. Cultures were maintained at 37° C. in a humidified atmosphere of 5% CO2/95% air. A172 cells were seeded at 8,000 cells per well on 96-well plates. […] Cell viability was determined using a PrestoBlue Assay reagent […] according to the manufacturer's instructions. Absorption for each sample well on the plate was measured using a Cytation 3 plate reader at 560 nm and 590 nm (BioTek, Winooski, Vt.). Activity was calculated relative to 0.1% DMSO untreated control. Treatment with 0.1% DMSO alone was used as the cell viability activity control. The relative standard deviation of the DMSO control was <5%.

[2] = tested on: SH-SY5Y Neuroblastoma Cells; test: ATP levels (CellTiter-Glo); format: cell-based, human; settings: staurosporine 1 μM
Experimental: The effect of the peptides on cellular metabolism can be assessed using an assay of ATP levels in cultured cells such as human neuroblastoma cells. Peptides were initially prepared as 10 mM stock in DMSO and used at a final concentration of 10 μM (0.1% DMSO). […] CellTiter-Glo® Assay kit was purchased from Promega. SH-SY5Y human bone marrow neuroblastoma cell line was purchased from American Type Culture Collection (Manassas, Va.) and licensed from Memorial Sloan-Kettering Cancer Center (New York, N.Y.). SH-SY5Y cells were grown in DMEM/F12 medium supplemented with 10% FBS with 100 IU/ml penicillin and 100 μg/ml streptomycin. Cultures were maintained at 37° C. in a humidified atmosphere of 5% CO2/95% air. SH-SY5Y cells were seeded at 30,000 cells per well on 96-well plates. […] ATP levels were determined using a CellTiter-Glo Assay kit (Promega) according to the manufacturer's instructions. Luminescence for each sample well on the plate was measured using a Cytation 3 plate reader (BioTek, Winooski, Vt.). Activity was calculated relative to 0.1% DMSO treated control. The relative standard deviation of the result for the 0.1% DMSO treated control was <5%.

What does the source list for `CN[C@@H]1C[C@H]2O[C@@](C)([C@@H]1OC)n1c3ccccc3c3c4c(c5c6ccccc6n2c5c31)C(=O)NC4` [staurosporine, Staurosporine, reference compound]?
viability at 1 µM [1]: < 75%; ATP levels, % of the 0.1% DMSO treated control value [2]: < 5%
